Values of other authors, collected in patent publication US20240009133A1, “METHODS OF TREATING AUTOIMMUNE OR INFLAMMATORY CONDITIONS WITH CANNABIDIOL OR ITS DERIVATIVES/ANALOGS” (ORCOSA INC., priority 2020, published 2024).

Conditions: oral, randomized control trial in Crohn's disease

For `C=C(C)[C@@H]1CCC(C)=C[C@H]1c1c(O)cc(CCCCC)cc1O` [CBD, cannabidiol], the efficacy is given as “no statistical efficacy demonstrated” and the safety is given as “safe”.
